Data set [1] can be described thus: Thermal stability by thermogravimetric analysis (thermal weight-loss temperature Ti). Type of data set: physicochemical. The following applies: TGA under nitrogen atmosphere, scan rate 10° C./min. As to the method: The thermal stability of the OH1 chromophore was investigated using thermogravimetric analysis (TGA) and differential scanning calorimetry (DSC) under nitrogen atmosphere (scan rate: 10° C./min). The melting temperature Tm is defined here as the peak position in the DSC scan. The thermal weight-loss temperature Ti estimated as the temperature at the intercept of the leading edge of the weight loss by the base line of the TGA scans. […] The high thermal stability of OH1 crystals is an advantage for applying a melt-based crystal growth that is difficult for the ionic salts, e.g. DAST that decomposes at the melting temperature.

A short description of data set [2]: Solubility of OH1 and comparison crystals in methanol and other organic solvents. In kind it is physicochemical. As for the experimental part: OH1 molecules are dissolved very well in acetone and acetonitrile, and relatively good in ethanol and methanol. We selected methanol as the solvent for growing the crystals because the solubility in acetone is too high and the solute yield on decreasing the temperature is the most efficient in methanol.
The solubility of OH1 in methanol as a function of temperature is shown in FIG. 25; the solid curve is according to the Van't Hoff equation with the solution enthalpy ΔH=29±2 kJ/mol and entropy change ΔS=[…].

A further data set is described as follows: Solubility in water. In kind it is physicochemical.
The conditions of data set [3]: comparison crystals from literature [13], [11, 18, 12]; cited from earlier work.
For data set [4] the following is noted: comparison crystals; cited from earlier work.
For data set [5] the following is noted: comparison crystals from literature; cited from earlier work.

“And” between values parts separate entries of the source, which are not always exact repeats. Identical values can stand only once. Like-named read-outs stand apart in the source and are kept apart here.

On to `CC1CC(C=Cc2ccc(O)cc2)=CC(=C(C#N)C#N)C1` (stereo not shown) [OH2, 2-(3-(4-hydroxystyryl)-5-methylcyclohex-2-enylidene)malononitrile], for which the “thermal weight-loss temperature Ti” value in data set [1] is 242/326 °C.

As for `CC1(C)CC(/C=C/c2ccc(O)cc2)=CC(=C(C#N)C#N)C1` [OH1, 2-(3-(4-hydroxystyryl)-5,5-dimethylcyclohex-2-enylidene)malononitrile], in data set [2] (25° C.), the “Solubility in Acetone” value came out at 25.9 g/100 g solvent, the “Solubility in Acetonitrile” value amounted to 4.32 g/100 g solvent, the “Solubility in Ethanol” value was determined as 2.34 g/100 g solvent and the “Solubility in Methylene chloride” value is recorded as 1.4 g/100 g solvent. For the same compound, in data set [2] (40° C.), the “Solubility in Acetone” value was found to be 41.8 g/100 g solvent, the “Solubility in Acetonitrile” value stood at 5.3 g/100 g solvent, the “Solubility in Ethanol” value is 2.5 g/100 g solvent and the “Solubility in Methylene chloride” value is on record as 1.9 g/100 g solvent. For the same compound, the “Solubility in Methanol” value in data set [2] (methanol, 25° C.) is 2.15 g/100 g solvent. For the same compound, in data set [2] (methanol, 40° C.), the “solubility at 40° C. (g/100 g methanol)” value came out at 3.74 g/100 g methanol. Besides, the “Solubility in Methanol” value in data set [2] (methanol, 40° C. (Table 9)) is 3.4 g/100 g solvent. In the data set “Solubility in water”, the solubility in water result was “insoluble”.

`CN(C)c1ccc(C=Cc2cc[n+](C)cc2)cc1.Cc1ccc(S(=O)(=O)[O-])cc1` [DAST, 4′-dimethylamino-N-methyl-4-stilbazolium tosylate]: the “solubility at 40° C. (g/100 g methanol)” value in data set [3] is 3.73 g/100 g methanol. Also, in data set [4], the solubility in water result is given as “highly soluble”. In addition, the “thermal weight-loss temperature Ti” value in data set [5] was 250 °C and 250/250 °C.

On to `CN(C)c1ccc(C=CC2=CC(=C(C#N)C#N)CC(C)(C)C2)cc1` [DAT2], for which the “solubility at 40° C. (g/100 g methanol)” value in data set [3] is on record as less than 0.01 g/100 g methanol. In data set [4], the solubility in water entry is reported as “insoluble”. For the same compound, in data set [5], the “thermal weight-loss temperature Ti” value was 293 °C.

The values above are taken from patent US20110128610A1, “PHENOLIC CONFIGURATIONALLY LOCKED POLYENE BULK SINGLE CRYSTALS, CRYSTALLINE THIN FILMS AND WAVEGUIDES FOR ELECTRO-OPTICS AND THZ-WAVE APPLICATIONS” (priority 2008, published 2011).
